Test results published in patent US9861640B2, “Medicament for treatment of Alzheimer's disease” (KEMPHYS LTD., priority 2013, dated 2018).

Experiments:
full-length (fl)-APP = assay: Immunoblot of full-length APP in brains of APP23 mice; assay type: in vivo, mouse; details: 8.5-month-old male APP23 mice; Am80 0.5 and/or HX630 5 mg/kg/d; day 18
Procedure: APP23 mice begin forming amyloid deposits when they are 6 months old, but memory deficits in the MWM test appear quite early (before 3 months of age). Here, we used 8.5-month-old male APP23 mice and their WT littermates (C57BL/6J). We used stratified random sampling to divide mice (four to six per cage) into four groups to equalize the mean body weight of the study groups: mice given 0.5 mg/kg/d Am80, those given 5 mg/kg/d HX630, those given the mixture of 0.5 mg/kg/d Am80 and 5 mg/kg/d HX630, and those given the vehicle. Am80 and HX630 were suspended in 0.5% (w/v) carboxymethylcellulose solution and were orally administered to mice at 0.5 mg/kg (Am80) or 5 mg/kg (HX630) for 17 consecutive days (once daily at 18:00). Control animals received the same volume of 0.5% (w/v) carboxymethylcellulose solution orally, without the other compounds. We set the 0.5 mg/kg/d dose for Am80 on the basis that this had been found effective in other in vivo studies, such as those by Kawahara et al. and Ishido and Shudo [37]. Higher doses of Am80 (3 mg/kg/d and 6 mg/kg/d) were also orally administered to mice for 17 consecutive days. Animals were weighed once a week. Mice were subjected to behavioral testing on days 15-18 of the first oral administration of the compounds (at 19:00-23:00). On days 15-17 (not day 18), animals received the compounds at 24:00, after behavioral testing. […]

[1] = test system: RA response element (RARE); assay: RARE luciferase reporter gene assay in MG5 cells; assay type: cell-based, mouse; details: pGL3-RARE-Luc; 5 μM each, 24 h; fold induction relative to vehicle-treated cells
Procedure: MG5 cells (2×10^6 cells in 100 μl) were transfected by electroporation with 1.0 μg of pGL3-RARE-Luc (#13458; Addgene) or pGL3-Luc vector (Promega) and 0.25 μg of Renilla luciferase vector (phRL-TK) (Promega), using the Nucleofector transfection system (program #D-032; Amaxa) according to the manufacturer's protocol, taken up in the medium, and seeded in 48-well plates (1.25×10^5 cells/well). For some experiments, cells were transfected with 1.0 μg of pGL3-RARE-Luc or pGL3-Luc vector and 0.25 μg of phRL-TK in the presence of 0.25 μg each of pcDNA3.1-RAR (#16287; Addgene) and pcDNA3.1-RXR (#8882; Addgene). An empty pcDNA3.1 expression vector was used to maintain equal amounts of DNA for each transfection. Five hours after transfection, the cells were exposed to Am80 (5 μM) and/or HX630 (5 μM) in the medium for 24 h. Luciferase activities were determined in cell lysates. Firefly luciferase activity was normalized to that of Renilla luciferase for each well.

APP23 mice = assay: Morris water maze (MWM) test; assay type: in vivo, mouse; details: 8.5-month-old male APP23 mice; for acquisition of spatial learning (escape latency) in the MWM test: oral Am80 0.5 mg/kg and/or HX630 5 mg/kg for 17 days, vs vehicle-treated APP23 mice
Procedure: Hemizygous APP23 mice, which overexpress human-type AβPP carrying the double mutation K670N/M671L, were produced and bred as previously described. Only male mice were analyzed. Wistar rats were obtained from Kyudo Co., Ltd. (Kumamoto, Japan). Animals were housed in standard mouse cages under standard laboratory conditions: food and water available ad libitum, constant room temperature and humidity, and a 12 h light/12 h dark cycle (light on from 08:00 to 20:00). These animal experiments were conducted according to the guidelines of the Ministry of Education, Culture, Sports, Science, and Technology of Japan, and were approved by the Institutional Animal Care and Use Committee of Kumamoto University (#B25-133).
APP23 mice begin forming amyloid deposits when they are 6 months old, but memory deficits in the MWM test appear quite early (before 3 months of age). Here, we used 8.5-month-old male APP23 mice and their WT littermates (C57BL/6J). We used stratified random sampling to divide mice (four to six per cage) into four groups to equalize the mean body weight of the study groups: mice given 0.5 mg/kg/d Am80, those given 5 mg/kg/d HX630, those given the mixture of 0.5 mg/kg/d Am80 and 5 mg/kg/d HX630, and those given the vehicle. Am80 and HX630 were suspended in 0.5% (w/v) carboxymethylcellulose solution and were orally administered to mice at 0.5 mg/kg (Am80) or 5 mg/kg (HX630) for 17 consecutive days (once daily at 18:00). Control animals received the same volume of 0.5% (w/v) carboxymethylcellulose solution orally, without the other compounds. […]
The MWM test was performed as described previously. […] During both acquisition and probe trials, the routes of the mice were recorded by means of a computerized video tracking system (CompACT VAS; Muromachi Kikai Co. Ltd., Tokyo, Japan). Training trials measured the time it took for a mouse to find the escape platform. Probe trials determined the percent time spent in each quadrant of the maze. […]

| SMILES | total amount of full-length (fl)-APP in brain (full-length (fl)-APP) | RARE reporter activity in MG5 cells [1] | acquisition of spatial learning (escape latency) in the MWM test (APP23 mice) | memory deficits in APP23 mice (MWM) (APP23 mice; oral Am80 0.5 mg/kg and/or HX630 5 mg/kg, 17 days) |
| --- | --- | --- | --- | --- |
| CC1(C)CCC(C)(C)c2cc(NC(=O)c3ccc(C(=O)O)cc3)ccc21 [Am80, 4-{(5,6,7,8-tetrahydro-5,5,8,8-tetramethyl-2-naphthalenyl)carbamoyl}benzoic acid] | had no effect | 4.3 fold | No significant difference | did not ameliorate memory deficits |
| CN1c2ccccc2N=C(c2ccc(C(=O)O)cc2)c2cc3c(cc21)C(C)(C)CCC3(C)C [HX630, 4-[5H-2,3-(2,5dimethyl-2,5-hexano)-5-methyldibenzo[b,e]-diazepin-11-yl]benzoic acid] | had no effect | no increase | No significant difference | – |
